Assay results: PubChem BioAssay (NCI)
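How tested: cells in 96-well plates exposed to compound for 48 hours at five concentrations. At the GI50, growth is halved. TGI: total growth inhibition.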

Assays:
Experiment in all cases: NCI-60 cell line screen, 48 h
[1] = tested on: A498 renal
[2] = tested on: OVCAR-3 ovarian
[3] = tested on: SF-539 CNS
[4] = tested on: NCI-H522 lung
[5] = tested on: SF-268 CNS
[6] = tested on: IGROV1 ovarian
[7] = tested on: SN12C renal
[8] = tested on: HCT-15 colon
[9] = tested on: SR leukemia
[10] = tested on: A549 NSCLC
[11] = tested on: RPMI-8226 leukemia
[12] = tested on: HOP-62 NSCLC
[13] = tested on: OVCAR-4 ovarian
[14] = tested on: PC-3 prostate
[15] = tested on: EKVX NSCLC
[16] = tested on: SW-620 colon
[17] = tested on: NCI-H226 lung
[18] = tested on: SNB-19 CNS
[19] = tested on: SK-MEL-5 melanoma
[20] = tested on: NCI/ADR-RES ovarian
[21] = tested on: MALME-3M melanoma
[22] = tested on: K-562 leukemia
[23] = tested on: UACC-62 melanoma
[24] = tested on: SNB-75 CNS
[25] = tested on: NCI-H460 lung
[26] = tested on: ACHN renal
[27] = tested on: COLO 205 colon
[28] = tested on: OVCAR-8 ovarian
[29] = tested on: KM12 colon
[30] = tested on: SK-OV-3 ovarian
[31] = tested on: HL-60(TB) leukemia
[32] = tested on: MDA-MB-435
[33] = tested on: OVCAR-5 ovarian
[34] = tested on: UACC-257 melanoma
[35] = tested on: DU-145 prostate
[36] = tested on: HCT-116 colon
[37] = tested on: SK-MEL-2 melanoma
[38] = tested on: NCI-H23 lung
[39] = tested on: HS 578T breast
[40] = tested on: MOLT-4 leukemia
[41] = tested on: HOP-92 NSCLC
[42] = tested on: UO-31 renal
[43] = tested on: 786-0 renal
[44] = tested on: MCF7 breast
[45] = tested on: SK-MEL-28 melanoma
[46] = tested on: TK-10 renal
[47] = tested on: MDA-MB-468 breast
[48] = tested on: SF-295 CNS
[49] = tested on: RXF 393 renal
[50] = tested on: CAKI-1 renal
[51] = tested on: HT29 colon
[52] = tested on: MDA-MB-231 breast
[53] = tested on: BT-549 breast
[54] = tested on: CCRF-CEM leukemia
[55] = tested on: M14 melanoma
[56] = tested on: U251 CNS
[57] = tested on: LOX IMVI melanoma
[58] = tested on: T-47D breast
[59] = tested on: HCC-2998 colon

Work on `CC1(C)CC[C@]2(C(=O)O)CC[C@]3(C)C(=CCC4[C@@]5(C)C[C@@H](O)[C@@H]6OC(c7ccco7)OC[C@@]6(C)C5CC[C@]43C)C2C1` (stereo partly specified) yielded a GI50 [1] of 14.1 µM, a TGI [1] of 30.8 µM and a GI50 [2] of 9.25 µM. For the same molecule, the TGI [2] was 23 µM, the GI50 [3] was 13.3 µM and the TGI [3] was 26.4 µM. It also gave a GI50 [4] of 10.6 µM, a TGI [4] of 28.1 µM and a GI50 [5] of 10.7 µM. It also gave a TGI [5] of 31.8 µM, a GI50 [6] of 11.7 µM and a TGI [6] of 28 µM. It also gave a GI50 [7] of 11.8 µM, a TGI [7] of 26.2 µM and a GI50 [8] of 3.32 µM. For the same molecule, the TGI [8] was 15.8 µM, the GI50 [9] was 9.92 µM and the TGI [9] was 51.4 µM. The GI50 [10] was 3.2 µM, the TGI [10] was 20.2 µM and the GI50 [11] was 5.62 µM. The TGI [11] was 71.2 µM, the GI50 [12] was 7.06 µM and the TGI [12] was 28.7 µM. The GI50 [13] was 16.6 µM, the TGI [13] was 63.4 µM and the GI50 [14] was 9.27 µM. It also gave a TGI [14] of over 100 µM, a GI50 [15] of 5.05 µM and a TGI [15] of 21.9 µM. It also gave a GI50 [16] of 11.2 µM, a TGI [16] of 25.4 µM and a GI50 [17] of 11.7 µM. It also gave a TGI [17] of 36.1 µM, a GI50 [18] of 3.97 µM and a TGI [18] of 21.8 µM. For the same molecule, the GI50 [19] was 0.304 µM, the TGI [19] was 1.2 µM and the GI50 [20] was 6.62 µM. It also gave a TGI [20] of 32.3 µM, a GI50 [21] of 0.191 µM and a TGI [21] of 0.894 µM. It also gave a GI50 [22] of 4.81 µM, a TGI [22] of over 100 µM and a GI50 [23] of 0.312 µM. It also gave a TGI [23] of 12.5 µM, a GI50 [24] of 6.35 µM and a TGI [24] of 30.2 µM. The GI50 [25] was 6.45 µM, the TGI [25] was 19.9 µM and the GI50 [26] was 0.111 µM. For the same molecule, the TGI [26] was 14.5 µM, the GI50 [27] was 0.11 µM and the TGI [27] was 0.263 µM. For the same molecule, the GI50 [28] was 10.3 µM, the TGI [28] was 61.5 µM and the GI50 [29] was 5.84 µM. It also gave a TGI [29] of 23.4 µM, a GI50 [30] of 27.1 µM and a TGI [30] of over 100 µM. For the same molecule, the GI50 [31] was 9.31 µM, the TGI [31] was 43.4 µM and the GI50 [32] was 0.475 µM. For the same molecule, the TGI [32] was 15.4 µM, the GI50 [33] was 16.4 µM and the TGI [33] was 30.6 µM. The GI50 [34] was 0.208 µM, the TGI [34] was 0.913 µM and the GI50 [35] was 11.6 µM. For the same molecule, the TGI [35] was 85 µM, the GI50 [36] was 5.01 µM and the TGI [36] was 18.4 µM. For the same molecule, the GI50 [37] was 0.417 µM, the TGI [37] was 13.7 µM and the GI50 [38] was 9.31 µM. It also gave a TGI [38] of 23.2 µM, a GI50 [39] of 11.1 µM and a TGI [39] of 45.2 µM. For the same molecule, the GI50 [40] was 4.75 µM, the TGI [40] was 33.7 µM and the GI50 [41] was 5.97 µM. For the same molecule, the TGI [41] was 22.7 µM, the GI50 [42] was 6.95 µM and the TGI [42] was 21.1 µM. The GI50 [43] was 18.9 µM, the TGI [43] was 64.7 µM and the GI50 [44] was 8.83 µM. It also gave a TGI [44] of 36.4 µM, a GI50 [45] of 0.22 µM and a TGI [45] of 15.7 µM. The GI50 [46] was 16.4 µM, the TGI [46] was 68.9 µM and the GI50 [47] was 0.11 µM. The TGI [47] was 6.03 µM, the GI50 [48] was 5.3 µM and the TGI [48] was 19.1 µM. It also gave a GI50 [49] of 13 µM, a TGI [49] of 26.5 µM and a GI50 [50] of 21.3 µM. It also gave a TGI [50] of 83.3 µM, a GI50 [51] of 12.8 µM and a TGI [51] of 41.5 µM. The GI50 [52] was 16.2 µM, the TGI [52] was 32.3 µM and the GI50 [53] was 6.78 µM. For the same molecule, the TGI [53] was 21.4 µM, the GI50 [54] was 5.21 µM and the TGI [54] was 30.3 µM. For the same molecule, the GI50 [55] was 0.416 µM, the TGI [55] was 16.8 µM and the GI50 [56] was 1.47 µM. The TGI [56] was 16.9 µM, the GI50 [57] was 5.69 µM and the TGI [57] was 19.1 µM. For the same molecule, the GI50 [58] was 15.6 µM, the TGI [58] was over 100 µM and the GI50 [59] was 6.35 µM. For the same molecule, the TGI [59] was 20.4 µM.

Work on `Cc1cc2nc3c4ccccc4n(CCCN(C)C)c3nc2cc1C` yielded a GI50 [1] of 3.97 µM, a TGI [1] of 13 µM and a GI50 [2] of 2.46 µM. For the same molecule, the TGI [2] was 6 µM, the GI50 [3] was 2.16 µM and the TGI [3] was 5.51 µM. The GI50 [4] was 1.44 µM, the TGI [4] was 3.45 µM and the GI50 [5] was 2.95 µM. The TGI [5] was 10.1 µM, the GI50 [6] was 1.76 µM and the TGI [6] was 4.11 µM. The GI50 [7] was 2.33 µM, the TGI [7] was 10.1 µM and the GI50 [8] was 1.8 µM. For the same molecule, the TGI [8] was 3.56 µM, the GI50 [9] was 2.03 µM and the TGI [9] was 6.94 µM. The GI50 [10] was 1.5 µM, the TGI [10] was 4.04 µM and the GI50 [11] was 2.65 µM. The TGI [11] was 13.1 µM, the GI50 [12] was 1.57 µM and the TGI [12] was 5 µM. It also gave a GI50 [13] of 2.65 µM, a TGI [13] of 8.11 µM and a GI50 [14] of 2.71 µM. The TGI [14] was 17.3 µM, the GI50 [15] was 3.01 µM and the TGI [15] was 10.1 µM. It also gave a GI50 [16] of 1.72 µM, a TGI [16] of 5.45 µM and a GI50 [17] of 2.38 µM. For the same molecule, the TGI [17] was 9.14 µM, the GI50 [18] was 2.99 µM and the TGI [18] was 11.5 µM. The GI50 [19] was 2.21 µM, the TGI [19] was 5.12 µM and the GI50 [20] was 1.41 µM. The TGI [20] was 3.57 µM, the GI50 [21] was 1.82 µM and the TGI [21] was 3.91 µM. The GI50 [22] was 2.52 µM, the TGI [22] was 10.2 µM and the GI50 [23] was 1.89 µM. It also gave a TGI [23] of 4.97 µM, a GI50 [24] of 1.85 µM and a TGI [24] of 10.2 µM. It also gave a GI50 [25] of 2.31 µM, a TGI [25] of 6.76 µM and a GI50 [26] of 1.73 µM. The TGI [26] was 4.91 µM, the GI50 [27] was 1.32 µM and the TGI [27] was 2.85 µM. The GI50 [28] was 1.32 µM, the TGI [28] was 4.08 µM and the GI50 [29] was 3.31 µM. The TGI [29] was 11.3 µM, the GI50 [30] was 2.05 µM and the TGI [30] was 5.93 µM. It also gave a GI50 [31] of 2.19 µM, a TGI [31] of 5.43 µM and a GI50 [32] of 2.09 µM. It also gave a TGI [32] of 4.52 µM, a GI50 [33] of 2.34 µM and a TGI [33] of 6.87 µM. The GI50 [34] was 1.84 µM, the TGI [34] was 4.41 µM and the GI50 [35] was 3.16 µM. For the same molecule, the TGI [35] was 9.57 µM, the GI50 [36] was 1.77 µM and the TGI [36] was 9 µM. It also gave a GI50 [37] of 1.68 µM, a TGI [37] of 3.21 µM and a GI50 [38] of 1.71 µM. The TGI [38] was 4.1 µM, the GI50 [39] was 2.95 µM and the TGI [39] was 14.8 µM. The GI50 [40] was 1.94 µM, the TGI [40] was 6.41 µM and the GI50 [41] was 1.89 µM. For the same molecule, the TGI [41] was 9.4 µM, the GI50 [42] was 0.6 µM and the TGI [42] was 3.27 µM. The GI50 [43] was 3 µM, the TGI [43] was 11.8 µM and the GI50 [44] was 1.95 µM. For the same molecule, the TGI [44] was 4.88 µM, the GI50 [45] was 3.06 µM and the TGI [45] was 9.72 µM. It also gave a GI50 [46] of 2.58 µM, a TGI [46] of 8.64 µM and a GI50 [47] of 2.46 µM. The TGI [47] was 7.54 µM, the GI50 [48] was 2.29 µM and the TGI [48] was 8.79 µM. It also gave a GI50 [49] of 2.28 µM, a TGI [49] of 7.09 µM and a GI50 [50] of 2.08 µM. For the same molecule, the TGI [50] was 7.36 µM, the GI50 [51] was 1.45 µM and the TGI [51] was 4.53 µM. It also gave a GI50 [52] of 1.94 µM, a TGI [52] of 4.79 µM and a GI50 [53] of 2.51 µM. The TGI [53] was 9.68 µM, the GI50 [54] was 3.05 µM and the TGI [54] was 11.7 µM. For the same molecule, the GI50 [55] was 1.69 µM, the TGI [55] was 3.5 µM and the GI50 [56] was 2 µM. It also gave a TGI [56] of 6.42 µM, a GI50 [57] of 1.35 µM and a TGI [57] of 2.87 µM. The GI50 [58] was 2.72 µM, the TGI [58] was 9.11 µM and the GI50 [59] was 1.74 µM. It also gave a TGI [59] of 3.83 µM.
